According to patent US6444696B1, “Pyrazole derivatives P38 MAP kinase inhibitors” (Syntex (U.S.A.) LLC, priority 1998, dated 2002):
Where a name gives a salt, the structure may show the parent alone.

Compound	melting point [°C]
CC(C)NC(=O)Oc1cccc(C(=O)c2cnn(-c3ccc(F)cc3)c2N)c1	225.2 to 230.1
CCNC(=O)Oc1cccc(C(=O)c2cnn(-c3ccc(F)cc3)c2N)c1	201.2 to 202.8
CN1CCN(CCCc2cccc(C(=O)c3cnn(-c4ccc(F)cc4)c3N)c2)CC1 (as salt: HCl) [compound 30, 5-amino-1-(4-fluorophenyl)-4-{3-[3-(4-methylpiperazin-1-yl)propyl]benzoyl}pyrazole]	254.5 to 254.9
Nc1c(C(=O)c2cccc(CCCN3CCCCC3)c2)cnn1-c1ccc(F)cc1 (as salt: HCl) [compound 32, 5-amino-1-(4-fluorophenyl)-4-[3-(3-piperidin-1-ylpropyl)benzoyl]pyrazole]	227.1 to 277.7
Cc1ccc(-n2ncc(C(=O)c3cccc(-c4cccnc4)c3)c2N)cc1 (as salt: HCl) [compound 65, 5-amino-1-(4-methylphenyl)-4-[3-(pyridin-3-yl)benzoyl]pyrazole]	281.3 to 282.8
COc1cccc(-n2ncc(C(=O)c3cccc(-c4cccnc4)c3)c2N)c1 (as salt: HCl) [compound 66, 5-amino-1-(3-methoxyphenyl)-4-[3-(pyridin-3-yl)benzoyl]pyrazole]	256.1 to 256.5
Nc1c(C(=O)c2cccc(-c3cccnc3)c2)cnn1-c1ccc(S(N)(=O)=O)cc1 (as salt: HCl) [compound 68, 5-amino-1-(4-sulfamoylphenyl)-4-[3-(pyridin-3-yl)benzoyl]pyrazole]	> 300
CC(=O)OCC(COc1cccc(C(=O)c2cnn(-c3ccc(F)cc3)c2N)c1)OC(C)=O (stereo in doubt) [compound 165, 5-amino-1-(4-fluorophenyl)-4-[3-{2(S),3-(diacetoxy)propoxy}benzoyl]pyrazole]	91.4 to 92.7
Nc1c(C(=O)c2cccc(OCC(=O)N3CCOCC3)c2)cnn1-c1ccc(F)cc1 [compound 35, 5-amino-1-(4-fluorophenyl)-4-[3-(morpholin-4-ylcarbonylmethyloxy)benzoyl]pyrazole]	124.3 to 126.6
Nc1c(C(=O)c2cccc(OCc3ccccn3)c2)cnn1-c1ccc(F)cc1 [compound 82, 5-amino-1-(4-fluorophenyl)-4-[3-(pyridin-2-ylmethoxy)benzoyl]pyrazole]	176.1 to 177.3
Nc1c(C(=O)c2cccc(CN3CCCCC3)c2)cnn1-c1ccc(F)cc1F [compound 86, 5-Amino-1-(2,4-difluorophenyl)-4-[3-(1-piperidinylmethyl)benzoyl]pyrazole]	116.6 to 118.6
CC(C)(O)C#Cc1cccc(C(=O)c2cnn(-c3ccc(F)cc3)c2N)c1 [compound 87, 5-amino-1-(4-fluorophenyl)-4-[3-(3-hydroxy-3-methyl-but-1-ynyl)benzoyl]pyrazole]	152.6 to 153.1
Nc1c(C(=O)c2cccc(C#Cc3cccnc3)c2)cnn1-c1ccc(F)cc1F [compound 88, 5-amino-1-(2,4-difluorophenyl)-4-[3-(3-pyridylethynyl)benzoyl]pyrazole]	183.5 to 184
Nc1c(C(=O)c2cccc(CCc3cccnc3)c2)cnn1-c1ccc(F)cc1F [compound 91, 5-amino-1-(2,4-difluorophenyl)-4-[3-(3-pyridylethyl)benzoyl]pyrazole]	153.4 to 153.7
Nc1c(C(=O)c2cccc(CCCN3CCS(=O)(=O)CC3)c2)cnn1-c1ccc(F)cc1F [compound 92, 5-amino-1-(2,4-difluorophenyl)-4-[3-{3-(S,S-dioxo-thiomorpholin-4-yl)propyl}benzoyl]pyrazole]	123.8 to 125.9
Nc1c(C(=O)c2cccc(C#CC3(O)CCCC3)c2)cnn1-c1ccc(F)cc1F [compound 94, 5-amino-1-(2,4-difluorophenyl)-4-[3-{2-(1-hydroxycyclopentyl)ethynyl}benzoyl]pyrazole]	176.8 to 177.1
Nc1c(C(=O)c2cccc(CCC3(O)CCCC3)c2)cnn1-c1ccc(F)cc1F [compound 95, 5-amino-1-(2,4-difluorophenyl)-4-[3-{2-(1-hydroxycyclopentyl)ethyl}benzoyl]pyrazole]	120.3 to 121
Nc1c(C(=O)c2cccc(OCCN3CCOCC3)c2)cnn1-c1ccccc1F [compound 97, 5-amino-1-(2-fluorophenyl)-4-[3-(2-morpholin-4-ylethoxy)benzoyl]pyrazole]	130.8 to 135.1

Continued, values first:

melting point [°C]	Compound
62 to 65	COC(=O)OCC(COc1cccc(C(=O)c2cnn(-c3ccc(F)cc3)c2N)c1)OC(=O)OC (stereo in doubt) [compound 168, 5-amino-1-(4-fluorophenyl)-4-[3-{2(S),3-(dimethoxycarbonyloxy)propoxy}benzoyl]pyrazole]
78.3 to 80	CC1(C)OCC(COc2cccc(C(=O)c3cnn(-c4ccc(F)cc4)c3N)c2)O1 (stereo in doubt) [compound 170, 5-amino-1-(4-fluorophenyl)-4-{3-[(2,2-dimethyl-1,3-dioxolan-4(S)-yl)methoxy]benzoyl}pyrazole]
144.2 to 145.1	Nc1c(C(=O)c2cccc(OCCN3CCOCC3)c2)cnn1-c1c(Cl)cccc1Cl [compound 98, 5-amino-1-(2,6-dichlorophenyl)-4-[3-(2-morpholin-4-ylethoxy)benzoyl]pyrazole]
59 to 64	Nc1c(C(=O)c2cccc(C(O)CO)c2)cnn1-c1ccc(F)cc1F (stereo not drawn) [compound 103, 5-amino-1-(2,4-difluorophenyl)-4-[3-(1,2-dihydroxyethyl)benzoyl]pyrazole]
83 to 85.5	Cc1ccccc1-n1ncc(C(=O)c2cccc(C(O)CO)c2)c1N (stereo not drawn) [compound 109, 5-amino-1-(2-methylphenyl)-4-[3-(1,2-dihydroxyethyl)benzoyl]pyrazole]
215.9 to 216.2	Nc1c(C(=O)c2cccc(OCC(=O)O)c2)cnn1-c1ccc(F)cc1 [compound 119]
174.5 to 178	Nc1c(C(=O)c2cccc(OCCn3ncccc3=O)c2)cnn1-c1ccc(F)cc1 [compound 128]
127.3 to 128.5	Nc1c(C(=O)c2cccc(CN3CCOCC3)c2)cnn1-c1ccc(F)cc1F [compound 131]
141.5 to 145.5	Nc1c(C(=O)c2cccc(CN3CCC(O)CC3)c2)cnn1-c1ccc(F)cc1F [compound 133]
144.3 to 144.9	Nc1c(C(=O)c2cccc(OC[C@@H]3COC(=O)O3)c2)cnn1-c1ccc(F)cc1 [compound 171, 5-amino-1-(4-fluorophenyl)-4-{3-[(1,3-dioxolan-2-on-4(R)-yl)methoxy]benzoyl}pyrazole]
74.1 to 75.7	CCC1(CC)OC[C@H](COc2cccc(C(=O)c3cnn(-c4ccc(F)cc4)c3N)c2)O1 [compound 173, 5-amino-1-(4-fluorophenyl)-4-{3-[(2,2-diethyl-1,3-dioxolan-4(S)-yl)methoxy]benzoyl}pyrazole]
81.1 to 83	CCC1(C)OC[C@H](COc2cccc(C(=O)c3cnn(-c4ccc(F)cc4)c3N)c2)O1 (stereo partly drawn) [compound 174, 5-amino-1-(4-fluorophenyl)-4-{3-[(2-methyl-2-ethyl-1,3-dioxolan-4(S)-yl)methoxy]benzoyl}pyrazole]
